Where a SMILES comes first, the peptide text is derived from it.
Target: T1, EcPBP3 (Escherichia coli, UniProt P0AD68)
T1 construct: For assays, selections and SPR a construct with residues 60–588 which has the N-terminal domain, but not the transmembrane helix, was used; made in house
Experiment: Fluorescence polarisation competition assay with fluorescent Bicycle tracer (tracer 1 / BCY12820)
Assay type: binding
Conditions: protein 9.4 nM sets sensitivity limit, top concentration 5 µM, read-out: Ki (nM) by fluorescence polarisation with tracer 1 (BCY12820 as tracer), Geometric mean (Lower 95% CI; Upper 95% CI, n=number of values)
Description: Competition fluorescence polarisation assays were run by observing the fluorescence polarisation of a fluorescent “tracer” Bicycle molecule which competes against an unlabelled peptide for binding to the EcPBP3 target. 10 µL of protein (9.4 nM) was mixed with either 5 µL of peptide or 5 µL of buffer and then the assay was initiated by the addition of 10 µL of tracer (1 nM) (final volume 25 µL), in a black 384 low bind, low volume plate (Corning). The buffer was 10 mM HEPES (Sigma), 2% (v/v) glycerol (Sigma), 300 mM NaCl (Sigma), adjusted to pH 8. The plate was incubated for 1 h at 25 °C and then read in a PHERAstar FS (BMG) using with an “FP 485 520 520” optic module (excitation 485 nm, emission 520 nm). The gain was determined immediately prior to the read on a tracer-only well.
Dotmatics (Dotmatics) workflows performing the above calculations were used to process the data. Values quoted are the geometric means of at least 2 repeats.

T1 sequence (P0AD68 60-588): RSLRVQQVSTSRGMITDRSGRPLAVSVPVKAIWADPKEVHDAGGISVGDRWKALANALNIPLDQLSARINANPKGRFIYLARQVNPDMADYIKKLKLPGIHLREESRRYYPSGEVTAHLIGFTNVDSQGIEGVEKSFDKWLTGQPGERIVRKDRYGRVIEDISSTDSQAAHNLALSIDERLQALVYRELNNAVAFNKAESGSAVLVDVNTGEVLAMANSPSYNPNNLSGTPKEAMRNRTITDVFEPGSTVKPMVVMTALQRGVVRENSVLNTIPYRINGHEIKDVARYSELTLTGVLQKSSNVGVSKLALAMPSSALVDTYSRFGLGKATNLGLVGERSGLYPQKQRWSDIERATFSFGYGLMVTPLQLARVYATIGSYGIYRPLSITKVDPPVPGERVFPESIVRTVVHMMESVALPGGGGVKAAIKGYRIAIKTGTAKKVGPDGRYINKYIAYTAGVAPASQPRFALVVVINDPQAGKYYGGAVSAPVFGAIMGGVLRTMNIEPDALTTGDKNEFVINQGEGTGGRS

SMILES	Ki [nM]
CC(C)[C@@H]1NC(=O)[C@H](Cc2c[nH]c3ccccc23)NC(=O)[C@@H]2CCCN2C(=O)[C@@H]2CSCCC(=O)N3CN(CN(C3)C(=O)CCSC[C@H](NC(=O)[C@H](C)N)C(=O)N[C@@H](CO)C(=O)N[C@@H](Cc3ccccc3)C(=O)N[C@@H]([C@@H](C)O)C(=O)N[C@@H](CCCCNC(=N)N)C(=O)N2)C(=O)CCSC[C@@H](C(=O)N[C@@H](C)C(N)=O)NC(=O)CNC(=O)[C@H](CCC(=O)O)NC1=O [Peptide 36] (HELM PEPTIDE1{A.C.S.F.T.[N=C(N)NCCCC[C@H](N[*:1])C(=O)[*:2]].C.P.W.V.E.G.C.A.[am]}|CHEM1{[O=C(CC[*:1])N1CN(C(=O)CC[*:2])CN(C(=O)CC[*:3])C1]}$PEPTIDE1,CHEM1,2:R3-1:R1|PEPTIDE1,CHEM1,7:R3-1:R2|PEPTIDE1,CHEM1,13:R3-1:R3$$$V2.0)	75
CC(C)[C@@H]1NC(=O)[C@H](Cc2c[nH]c3ccccc23)NC(=O)[C@@H]2CCCN2C(=O)[C@@H]2CSCCC(=O)N3CN(CN(C3)C(=O)CCSC[C@H](NC(=O)[C@H](C)N)C(=O)N[C@@H](CO)C(=O)N[C@@H](Cc3ccccc3)C(=O)N[C@@H](Cc3c[nH]cn3)C(=O)N[C@@H](CCCCNC(=N)N)C(=O)N2)C(=O)CCSC[C@@H](C(=O)N[C@@H](C)C(N)=O)NC(=O)CNC(=O)[C@H](CCC(=O)O)NC1=O [Peptide 37] (HELM PEPTIDE1{A.C.S.F.H.[N=C(N)NCCCC[C@H](N[*:1])C(=O)[*:2]].C.P.W.V.E.G.C.A.[am]}|CHEM1{[O=C(CC[*:1])N1CN(C(=O)CC[*:2])CN(C(=O)CC[*:3])C1]}$PEPTIDE1,CHEM1,2:R3-1:R1|PEPTIDE1,CHEM1,7:R3-1:R2|PEPTIDE1,CHEM1,13:R3-1:R3$$$V2.0)	31.5
CC(C)C[C@@H]1NC(=O)[C@H](C(C)C)NC(=O)[C@H](Cc2c[nH]c3ccccc23)NC(=O)[C@@H]2CCCN2C(=O)[C@@H]2CSCCC(=O)N3CN(CN(C3)C(=O)CCSC[C@H](NC(=O)[C@H](C)N)C(=O)N[C@@H](CO)C(=O)N[C@@H](Cc3ccccc3)C(=O)N3CCC[C@H]3C(=O)N[C@@H](CCCCNC(=N)N)C(=O)N2)C(=O)CCSC[C@@H](C(=O)N[C@@H](C)C(N)=O)NC(=O)CNC1=O [Peptide 48] (HELM PEPTIDE1{A.C.S.F.P.[N=C(N)NCCCC[C@H](N[*:1])C(=O)[*:2]].C.P.W.V.L.G.C.A.[am]}|CHEM1{[O=C(CC[*:1])N1CN(C(=O)CC[*:2])CN(C(=O)CC[*:3])C1]}$PEPTIDE1,CHEM1,2:R3-1:R1|PEPTIDE1,CHEM1,7:R3-1:R2|PEPTIDE1,CHEM1,13:R3-1:R3$$$V2.0)	49.7
CC(C)[C@@H]1NC(=O)[C@H](Cc2c[nH]c3ccccc23)NC(=O)[C@@H]2CCCN2C(=O)[C@@H]2CSCCC(=O)N3CN(CN(C3)C(=O)CCSC[C@H](NC(=O)[C@H](C)N)C(=O)N[C@@H](CCC(=O)O)C(=O)N[C@@H](Cc3ccccc3)C(=O)N3CCC[C@H]3C(=O)N[C@@H](CCCCNC(=N)N)C(=O)N2)C(=O)CCSC[C@@H](C(=O)N[C@@H](C)C(N)=O)NC(=O)CNC(=O)[C@H](CCC(=O)O)NC1=O [Peptide 31] (HELM PEPTIDE1{A.C.E.F.P.[N=C(N)NCCCC[C@H](N[*:1])C(=O)[*:2]].C.P.W.V.E.G.C.A.[am]}|CHEM1{[O=C(CC[*:1])N1CN(C(=O)CC[*:2])CN(C(=O)CC[*:3])C1]}$PEPTIDE1,CHEM1,2:R3-1:R1|PEPTIDE1,CHEM1,7:R3-1:R2|PEPTIDE1,CHEM1,13:R3-1:R3$$$V2.0)	< 9
C[C@H](N)C(=O)N[C@H]1CSCCC(=O)N2CN3CN(C2)C(=O)CCSC[C@H](NC(=O)[C@H](CCCCNC(=N)N)NC(=O)[C@@H]2CCCN2C(=O)[C@H](Cc2ccccc2)NC(=O)[C@H](CO)NC1=O)C(=O)N1CCC[C@H]1C(=O)N[C@@H](Cc1c[nH]c2ccccc12)C(=O)N[C@@H]([C@@H](C)O)C(=O)N[C@@H](CCC(=O)O)C(=O)NCC(=O)N[C@H](C(=O)N[C@@H](C)C(N)=O)CSCCC3=O [Peptide 46] (HELM PEPTIDE1{A.C.S.F.P.[N=C(N)NCCCC[C@H](N[*:1])C(=O)[*:2]].C.P.W.T.E.G.C.A.[am]}|CHEM1{[O=C(CC[*:1])N1CN(C(=O)CC[*:2])CN(C(=O)CC[*:3])C1]}$PEPTIDE1,CHEM1,2:R3-1:R1|PEPTIDE1,CHEM1,7:R3-1:R2|PEPTIDE1,CHEM1,13:R3-1:R3$$$V2.0)	15.5

From paper PMC12120022, “Discovery and chemical optimisation of a potent, Bi-cyclic antimicrobial inhibitor of Escherichia coli PBP3” (Communications Biology, 2025)
